Like-named read-outs stand apart in the source and are kept apart here.
Experiments:
A549 lung adenocarcinoma = assay: cytotoxicity against A549 lung adenocarcinoma cell line; type: cell-based; details: read-out: cytotoxicity IC50, A549; A549 lung adenocarcinoma
Du145 colon carcinoma = assay: cytotoxicity against Du145 colon carcinoma cell line; type: cell-based; details: read-out: cytotoxicity IC50, Du145
[1] = system: HT29 colon adenocarcinoma; assay: cytotoxicity against HT29 colon adenocarcinoma cell line; type: cell-based; details: read-out: cytotoxicity IC50, HT29; HT29 colon adenocarcinoma
MCF7 breast carcinoma = assay: cytotoxicity against MCF7 breast carcinoma cell line; type: cell-based; details: read-out: cytotoxicity IC50, MCF7; MCF7 breast carcinoma
PP-1 [2] = assay: PP inhibition assay, PP-1; type: biochemical; details: triplicate
PP-2A [3] = assay: PP inhibition assay, PP-2A; type: biochemical; details: triplicate
[4] = cytotoxicity against A549 lung adenocarcinoma cell line; type: cell-based; details: human, A549 lung adenocarcinoma cells
[5] = cytotoxicity against HT29 colon adenocarcinoma cell line; type: cell-based; details: human, HT29 colon adenocarcinoma cells
[6] = cytotoxicity against MCF7 breast carcinoma cell line; type: cell-based; details: human, MCF7 breast carcinoma cells
PP-1 [7] = details: cited from earlier work
PP-2A [8] = details: read-out: IC50 PP-2A; cited from earlier work
[9] = read-out: IC50 PP-1, pH 7.5, pH 7.5
[10] = read-out: IC50 PP-1, pH 8.4, pH 8.4

**Q.** For 3′-deshydroxy-TTM [compound 3], which IC50 (A549 lung adenocarcinoma) is on record?
**A.** 26.6 ± 6.4 µM

**Q.** And the IC50 (Du145 colon carcinoma)?
**A.** 4.24 ± 0.11 µM

**Q.** And the IC50 [1]?
**A.** 7.35 ± 0.19 µM

**Q.** What about the IC50 (MCF7 breast carcinoma) of the same molecule?
**A.** 15.6 ± 0.9 µM

**Q.** What about the IC50 (PP-1 [2]; [9]) of the same molecule?
**A.** 0.47 µM

**Q.** What about the IC50 (PP-1 [2]; [10]) of the same molecule?
**A.** 0.677 µM

**Q.** And the IC50 (PP-2A [3]; read-out: IC50 PP-2A, pH 7.5)?
**A.** 15.6 µM

**Q.** And the IC50 (PP-2A [3]; read-out: IC50 PP-2A, pH 8.4)?
**A.** 15.3 µM

**Q.** For CO[C@H]([C@H](O)CC(=O)[C@@H](C)[C@@H](O)CC[C@@H](C)[C@@H]1O[C@]2(CC[C@@H](C)[C@H](CC[C@H](C)C(C)=O)O2)CC[C@@H]1C)[C@H](OC(=O)C[C@@H](O)C1=C(C)C(=O)OC1=O)C(C)C [compound 1, Tautomycin, reference compound], which IC50 [4] is on record?
**A.** 1.66 ± 0.14 µM

**Q.** What about the IC50 [5] of the same molecule?
**A.** 0.59 ± 0.01 µM

**Q.** What about the IC50 [6] of the same molecule?
**A.** 1.8 ± 0.12 µM

**Q.** And the IC50 (PP-1 [2]; [9])?
**A.** 0.00058 µM

**Q.** And the IC50 (PP-1 [2]; [10])?
**A.** 0.00086 µM

**Q.** And the IC50 (PP-2A [3]; read-out: IC50 PP-2A, pH 7.5)?
**A.** 0.015 µM

**Q.** What about the IC50 (PP-2A [3]; read-out: IC50 PP-2A, pH 8.4) of the same molecule?
**A.** 0.0426 µM

**Q.** For C3′ epi-TTM, which “less effective at PP-1 inhibition than 1” value (PP-1 [7]; relative to 1) is on record?
**A.** ~ 1000 fold

**Q.** Which “higher affinity for PP-1 than for PP-2A” value (PP-1 [7]; PP-1 over PP-2A) does the source give for tautomycetin [compound 2] here?
**A.** ~40 fold

**Q.** What about the IC50 (PP-1 [7]; read-out: IC50 PP-1) of the same molecule?
**A.** 0.0016 µM

**Q.** And the IC50 (PP-2A [8])?
**A.** 0.062 µM

From paper PMC2707755 (Organic letters, 2009)
